The target in data set [1] is T1, Dld2 (D-lactate dehydrogenase 2) (Saccharomyces cerevisiae, UniProt P46681).
T1 construct: produced in Komagataella phaffii KM71H, purified
T1 sequence (P46681 1-530): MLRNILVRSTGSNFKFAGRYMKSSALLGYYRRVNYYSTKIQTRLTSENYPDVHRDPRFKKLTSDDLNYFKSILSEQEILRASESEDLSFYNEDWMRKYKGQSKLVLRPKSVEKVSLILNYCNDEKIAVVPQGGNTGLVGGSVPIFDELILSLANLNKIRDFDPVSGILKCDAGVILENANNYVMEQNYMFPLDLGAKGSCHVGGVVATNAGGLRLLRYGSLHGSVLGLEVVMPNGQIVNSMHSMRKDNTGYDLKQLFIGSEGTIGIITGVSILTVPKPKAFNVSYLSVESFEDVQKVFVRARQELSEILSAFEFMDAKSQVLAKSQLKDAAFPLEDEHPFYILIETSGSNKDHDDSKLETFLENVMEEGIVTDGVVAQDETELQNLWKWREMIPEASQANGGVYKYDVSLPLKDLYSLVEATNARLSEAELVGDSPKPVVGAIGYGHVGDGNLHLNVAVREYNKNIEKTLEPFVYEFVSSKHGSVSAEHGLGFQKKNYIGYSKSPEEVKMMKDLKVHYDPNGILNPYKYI
Description: stopped-flow flavin reduction, hyperbolic fit. The data set is classed as biochemical. As to conditions: anaerobic reductive half reaction; 50 mM HEPES, 150 mM NaCl pH 7, 25 °C; 450 nm; fast (first) phase of reduction. From the text: stopped-flow flavin reduction, hyperbolic fit on Dld2 (D-lactate dehydrogenase 2)

For data set [2], the target named is T2, hETF (ETF from Homo sapiens) (Homo sapiens, UniProt P13804+P38117).
T2 construct: gene ETFA
T2 sequence (P13804 20-333): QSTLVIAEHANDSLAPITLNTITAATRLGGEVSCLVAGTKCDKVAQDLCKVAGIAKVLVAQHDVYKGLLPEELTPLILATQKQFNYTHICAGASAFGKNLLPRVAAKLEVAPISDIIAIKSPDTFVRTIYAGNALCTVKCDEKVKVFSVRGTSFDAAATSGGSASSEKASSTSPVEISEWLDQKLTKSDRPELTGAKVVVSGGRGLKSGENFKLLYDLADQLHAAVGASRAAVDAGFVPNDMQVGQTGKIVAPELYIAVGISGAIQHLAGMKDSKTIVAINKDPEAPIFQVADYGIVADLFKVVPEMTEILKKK
T2 sequence (P38117 2-255): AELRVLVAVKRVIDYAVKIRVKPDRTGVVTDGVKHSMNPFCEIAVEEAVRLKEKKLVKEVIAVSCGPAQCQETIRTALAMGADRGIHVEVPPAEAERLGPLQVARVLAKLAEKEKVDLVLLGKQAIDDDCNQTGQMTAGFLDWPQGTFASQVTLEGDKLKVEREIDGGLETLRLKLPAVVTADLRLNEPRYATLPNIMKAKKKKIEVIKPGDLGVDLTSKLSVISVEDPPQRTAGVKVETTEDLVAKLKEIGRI
Kind of data set: UV-visible photoreduction of bound flavin. The class given is binding. As to conditions: co-purified cofactor; 50 mM HEPES pH 7, 1 mM DTT, anaerobic.

The target in data set [3] is T3, yETF (electron-transferring flavoprotein of Saccharomyces cerevisiae) (Saccharomyces cerevisiae, UniProt P42940+Q12480).
T3 construct: gene AIM45; heterodimer (alpha 38 kDa, beta 37 kDa), N-terminal hexahistidine tag on beta subunit (pETM11-His TEV), produced in E. coli Rosetta (DE3)-pLysS
T3 sequence (Q12480 15-344): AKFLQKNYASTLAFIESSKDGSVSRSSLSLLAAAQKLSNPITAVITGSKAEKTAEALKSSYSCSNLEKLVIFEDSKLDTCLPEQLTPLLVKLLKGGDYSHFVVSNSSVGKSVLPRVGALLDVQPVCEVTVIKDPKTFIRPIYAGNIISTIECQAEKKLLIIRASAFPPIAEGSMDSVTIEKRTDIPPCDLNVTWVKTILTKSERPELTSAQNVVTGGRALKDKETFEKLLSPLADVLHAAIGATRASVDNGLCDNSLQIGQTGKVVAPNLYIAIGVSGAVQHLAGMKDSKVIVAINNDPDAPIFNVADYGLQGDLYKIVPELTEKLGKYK
T3 sequence (P42940 1-261): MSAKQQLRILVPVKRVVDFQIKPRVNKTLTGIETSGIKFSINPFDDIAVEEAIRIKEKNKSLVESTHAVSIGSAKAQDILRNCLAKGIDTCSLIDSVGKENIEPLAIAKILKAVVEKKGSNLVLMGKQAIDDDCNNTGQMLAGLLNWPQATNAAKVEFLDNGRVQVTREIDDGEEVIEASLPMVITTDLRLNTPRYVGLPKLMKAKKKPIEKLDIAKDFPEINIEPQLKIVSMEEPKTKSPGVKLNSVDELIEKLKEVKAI
Kind of data set: UV-visible spectrum, native vs SDS-denatured; HPLC-DAD. The data set is classed as binding. Conditions: co-purified cofactor; 50 mM HEPES pH 7, 1 mM DTT, 25 °C.

The target of data set [4] is T4, hETF (ETF from Homo sapiens) (Homo sapiens, UniProt P13804+P38117, P38117:Y16F).
T4 construct: gene ETFA
T4 sequence (P13804 20-333): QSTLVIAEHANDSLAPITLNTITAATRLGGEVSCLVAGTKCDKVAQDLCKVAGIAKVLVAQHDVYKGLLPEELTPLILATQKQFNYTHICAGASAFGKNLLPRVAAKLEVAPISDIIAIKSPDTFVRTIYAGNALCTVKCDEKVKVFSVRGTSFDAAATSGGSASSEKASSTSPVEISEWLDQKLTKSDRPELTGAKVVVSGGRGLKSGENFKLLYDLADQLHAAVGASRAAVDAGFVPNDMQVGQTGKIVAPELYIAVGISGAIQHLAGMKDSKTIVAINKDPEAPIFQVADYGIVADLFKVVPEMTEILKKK
T4 sequence (P38117 2-255 Y16F): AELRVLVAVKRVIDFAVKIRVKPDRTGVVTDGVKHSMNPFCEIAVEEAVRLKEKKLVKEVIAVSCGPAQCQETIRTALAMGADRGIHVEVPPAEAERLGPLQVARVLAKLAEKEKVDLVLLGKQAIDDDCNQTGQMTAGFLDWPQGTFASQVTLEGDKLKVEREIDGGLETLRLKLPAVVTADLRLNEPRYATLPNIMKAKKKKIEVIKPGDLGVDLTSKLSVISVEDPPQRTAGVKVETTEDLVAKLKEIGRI
Description: UV-visible photoreduction of bound flavin. The class given is binding. Conditions: co-purified cofactor; 50 mM HEPES pH 7, 1 mM DTT, anaerobic.

Substrate in the data set “purified protein”: O=C(O)CC[C@@H](O)C(=O)O
Description: purified protein. The data set is classed as biochemical, Saccharomyces cerevisiae. As to conditions: 125 µM 2,6-dichlorophenol indophenol as acceptor, aerobic, 50 mM HEPES, 150 mM NaCl pH 7, 25 °C, apparent.

The results in this text go back to PMC6771786, “Closing the gap: yeast electron‐transferring flavoprotein links the oxidation of D‐lactate and D‐α‐hydroxyglutarate to energy production via the respiratory chain” (The Febs Journal, 2019).

In the case of `C[C@@H](O)C(=O)O` [D‐lactate], in data set [1], the dissociation constant (Kd) was found to be 15 ± 1 mM.
Regarding `Cc1cc2nc3c(=O)[nH]c(=O)nc-3n(C[C@H](O)[C@H](O)[C@H](O)COP(=O)(O)OP(=O)(O)OC[C@H]3O[C@@H](n4cnc5c(N)ncnc54)[C@H](O)[C@@H]3O)c2cc1C` [FAD], the “UV-visible photoreduction of bound flavin” value in data set [2] is “hETF wild‐type (C), and hETF‐βTyr16Phe (D) in the course of the photoreduction: oxidized FAD”; in data set [4], “hETF‐βTyr16Phe (D) in the course of the photoreduction: oxidized FAD”. Also, the “UV-visible spectrum, native vs SDS-denatured; HPLC-DAD” value in data set [3] is “absorption spectrum of denatured yETF further indicate the presence of an FAD chromophore”.

B1: Dld2 (D-lactate dehydrogenase 2) (Saccharomyces cerevisiae S288C) (protein)
chain: MLRNILVRSTGSNFKFAGRYMKSSALLGYYRRVNYYSTKIQTRLTSENYPDVHRDPRFKKLTSDDLNYFKSILSEQEILRASESEDLSFYNEDWMRKYKGQSKLVLRPKSVEKVSLILNYCNDEKIAVVPQGGNTGLVGGSVPIFDELILSLANLNKIRDFDPVSGILKCDAGVILENANNYVMEQNYMFPLDLGAKGSCHVGGVVATNAGGLRLLRYGSLHGSVLGLEVVMPNGQIVNSMHSMRKDNTGYDLKQLFIGSEGTIGIITGVSILTVPKPKAFNVSYLSVESFEDVQKVFVRARQELSEILSAFEFMDAKSQVLAKSQLKDAAFPLEDEHPFYILIETSGSNKDHDDSKLETFLENVMEEGIVTDGVVAQDETELQNLWKWREMIPEASQANGGVYKYDVSLPLKDLYSLVEATNARLSEAELVGDSPKPVVGAIGYGHVGDGNLHLNVAVREYNKNIEKTLEPFVYEFVSSKHGSVSAEHGLGFQKKNYIGYSKSPEEVKMMKDLKVHYDPNGILNPYKYI
notes: produced in Komagataella phaffii KM71H, purified
As for B1, in the data set “purified protein”, the Km amounted to 350 ± 50 µM, the kcat worked out at 0.42 ± 0.02 s⁻¹ and the kcat/Km is 1200 ± 300 M⁻¹ s⁻¹.

The Kd is a measure of binding affinity in units of concentration. A higher Kd goes with lower affinity. In general, Km refers to the substrate concentration at which the rate is half of its maximum. The kcat is the maximal rate divided by the concentration of active sites. One may read the kcat/Km as the turnover number divided by the Michaelis constant.
